# Values quoted from earlier work, collected in patent publication US20070031570A1, “Hydrothermically processed compositions containing phytosterols” (Archer-Daniels-Midland Company, priority 2002, published 2007).
# Read-outs that look alike come from different tables or passages of the source.
# Tests used:
# [1] = not given; remark: listed apart in the source
# [2] = 2.8 g sitostanol/day given as sitostanol ester in margarine
compound,measurement,setting,value
CC[C@H](CC[C@@H](C)[C@H]1CC[C@H]2[C@@H]3CC[C@H]4C[C@@H](O)CC[C@]4(C)[C@H]3CC[C@]12C)C(C)C [sitostanol],reduces cholesterol absorption,delivery system which avoids an oil phase ('562 and '776 patents),≤ 37%
same,effect on serum cholesterol,"[1]; subjects with moderate hypercholesterolemia, 3 g/day",no effect
same,reduced serum cholesterol,"[1]; subjects with severe hypercholesterolemia, 1.5 g/day",15%
CC[C@H](CC[C@@H](C)[C@H]1CC[C@H]2[C@@H]3CC=C4C[C@@H](O)CC[C@]4(C)[C@H]3CC[C@]12C)C(C)C [sitosterol],decrease serum cholesterol levels,"[1]; dose-response study, 3-9 g/day of powdered sitosterol",12%
same,reduced serum cholesterol,[1]; doses of 5-18 g sitosterol/day,16-20%
neomycin,effect on cholesterol absorption,orally-administered,reduces cholesterol absorption effectively
sitostanol ester,less effective at reducing cholesterol absorption compared to the unesterified sterol,"humans, dissolved in dietary fat",21%
same,reduced LDL cholesterol,[2],16%
